# Assay results published in ChEMBL document CHEMBL5223190, “Discovery of Bis-sulfonamides as Novel Inhibitors of Mitochondrial NADH-Quinone Oxidoreductase (Complex I)” (ACS Med Chem Lett, 2023).
# Calls of active or inactive are those of the source. The calls are words filed in the database; no cut-off is given here.
# Molecular target: not listed separately
# Experiment: Inhibition of bovine heart NADH oxidase activity using submitochondrial particle as source of enzyme measured after 4 mins
# Type: mitochondria, Bos taurus, Mitochondria
# Settings: not given
row,IC50,Compound
1,31000 nM,Cc1ccc(S(=O)(=O)N2CC[C@@H](OCO[C@@H]3CCN(S(=O)(=O)c4ccc(C)cc4)C3)C2)cc1
2,88 nM,CCCCCCCCCCS(=O)(=O)N1CCC[C@H]1COCOC[C@@H]1CCCN1S(=O)(=O)CCCCCCCCCC
3,270 nM,Cc1ccc(OCCCS(=O)(=O)N2CCC[C@H]2COCOC[C@@H]2CCCN2S(=O)(=O)CCCOc2ccc(C)cc2)cc1
4,260 nM,CCCCCCOCCCS(=O)(=O)N1CCC[C@H]1COCOC[C@@H]1CCCN1S(=O)(=O)CCCOCCCCCC
5,810 nM,Cc1ccc(S(=O)(=O)N2CCC[C@@H]2COCOC[C@@H]2CCCN2S(=O)(=O)c2ccc(C)cc2)cc1
6,4400 nM,COc1ccc(S(=O)(=O)N2CCC[C@H]2COCOC[C@@H]2CCCN2S(=O)(=O)c2ccc(OC)cc2)cc1
7,5800 nM,Cc1ccc(S(=O)(=O)N2[C@H](COCOC[C@@H]3C[C@@H]4CCCC[C@@H]4N3S(=O)(=O)c3ccc(C)cc3)C[C@@H]3CCCC[C@@H]32)cc1
8,17 nM,CCCCCCCCCCS(=O)(=O)N1CCC[C@H]1COCOC[C@@H]1CCCN1S(=O)(=O)CCCOc1ccc(I)cc1
9,360 nM,CCCCCCCCS(=O)(=O)N1CCC[C@H]1COCOC[C@@H]1CCCN1S(=O)(=O)CCCCCCCC
10,6400 nM,Cc1ccc(S(=O)(=O)N(C)CCOCOCCN(C)S(=O)(=O)c2ccc(C)cc2)cc1
11,1300 nM,Cc1ccc(S(=O)(=O)N2CC[C@@H](COCOC[C@@H]3CCN(S(=O)(=O)c4ccc(C)cc4)C3)C2)cc1
12,48 nM,CCCCCCCCCCS(=O)(=O)N1CCC[C@H]1COCOC[C@@H]1CCCN1S(=O)(=O)CCCOCCCCCC
13,5000 nM,Cc1ccc(C(=O)N2CCC[C@H]2COCOC[C@@H]2CCCN2C(=O)c2ccc(C)cc2)cc1
14,2400 nM,O=S(=O)(CCCOc1ccccc1)N1CCC[C@H]1COCOC[C@@H]1CCCN1S(=O)(=O)CCCOc1ccccc1
15,98 nM,CCCCCCc1ccc(S(=O)(=O)N2CCC[C@H]2COCOC[C@@H]2CCCN2S(=O)(=O)c2ccc(CCCCCC)cc2)cc1
16,6500 nM,CCCCCCCCCCCCS(=O)(=O)N1CCC[C@H]1COCOC[C@@H]1CCCN1S(=O)(=O)CCCCCCCCCCCC
17,150 nM,CCCCCc1ccc(S(=O)(=O)N2CCC[C@H]2COCOC[C@@H]2CCCN2S(=O)(=O)c2ccc(CCCCC)cc2)cc1
18,3400 nM,CCCCCCCCc1ccc(S(=O)(=O)N2CCC[C@H]2COCOC[C@@H]2CCCN2S(=O)(=O)c2ccc(CCCCCCCC)cc2)cc1

row,IC50,Compound
1,1100 nM,Cc1ccc(S(=O)(=O)N2CCC[C@H]2COCOCCCc2ccccc2)cc1
2,140 nM,CCCCc1ccc(S(=O)(=O)N2CCC[C@H]2COCOC[C@@H]2CCCN2S(=O)(=O)c2ccc(CCCC)cc2)cc1
3,85000 nM,COCOC[C@@H]1CCCN1S(=O)(=O)c1ccc(C)cc1
4,3100 nM,Cc1ccc(S(=O)(=O)N2CCC[C@@H]2COCOC[C@H]2CCCN2S(=O)(=O)c2ccc(C)cc2)cc1
5,2600 nM,Cc1ccc(S(=O)(=O)N2CCCC[C@H]2COCOC[C@@H]2CCCCN2S(=O)(=O)c2ccc(C)cc2)cc1
6,870 nM,Cc1ccc(S(=O)(=O)N2CC[C@H]2COCOC[C@@H]2CCN2S(=O)(=O)c2ccc(C)cc2)cc1
7,4600 nM,Cc1ccc(S(=O)(=O)N2CCC[C@H]2COCOCc2ccccc2)cc1
8,> 230000 nM,Cc1ccc(S(=O)(=O)N2CCC[C@H]2CO)cc1
9,620 nM,Cc1ccc(S(=O)(=O)N2CCC[C@H]2CCOCOCC[C@@H]2CCCN2S(=O)(=O)c2ccc(C)cc2)cc1
10,14 nM,O=S(=O)(CCCOc1ccc(I)cc1)N1CCC[C@H]1COCOC[C@@H]1CCCN1S(=O)(=O)CCCOc1ccc(I)cc1
11,72 nM,CCCCCCCCCCS(=O)(=O)N1CCC[C@H]1COCOC[C@@H]1CCCN1S(=O)(=O)CCCOc1ccc(C)cc1
12,150 nM,CCCCCCCCCCS(=O)(=O)N1CCC[C@H]1COCOC[C@@H]1CCCN1S(=O)(=O)CCCOc1ccccc1
13,3600 nM,CCCCCCCc1ccc(S(=O)(=O)N2CCC[C@H]2COCOC[C@@H]2CCCN2S(=O)(=O)c2ccc(CCCCCCC)cc2)cc1
14,4100 nM,O=S(=O)(c1ccccc1)N1CCC[C@H]1COCOC[C@@H]1CCCN1S(=O)(=O)c1ccccc1
15,16 nM,CC1(CCCCCCCCS(=O)(=O)N2CCC[C@H]2COCOC[C@@H]2CCCN2S(=O)(=O)CCCOc2ccc(I)cc2)N=N1
16,890 nM,Cc1ccc(S(=O)(=O)N2CCC[C@H]2COCOC[C@@H]2CCCN2S(=O)(=O)c2ccc(C)cc2)cc1
17,1100 nM,O=S(=O)(c1ccc(Cl)cc1)N1CCC[C@H]1COCOC[C@@H]1CCCN1S(=O)(=O)c1ccc(Cl)cc1

# Molecular target: not listed separately
# Experiment: Inhibition of bovine heart NADH-Q1 oxidoreductase (complex 1) oxidase activity using submitochondrial particle as source of enzyme measured after 4 mins
# Type: mitochondria, Bos taurus, Mitochondria
# Settings: not given
row,Compound,IC50
1,CCCCCCCCCCS(=O)(=O)N1CCC[C@H]1COCOC[C@@H]1CCCN1S(=O)(=O)CCCOc1ccc(I)cc1,40 nM
2,O=S(=O)(CCCOc1ccc(I)cc1)N1CCC[C@H]1COCOC[C@@H]1CCCN1S(=O)(=O)CCCOc1ccc(I)cc1,26 nM

# Organism: Bos taurus
# Experiment: Binding affinity to bovine heart NADH-Q1 oxidoreductase (complex 1) oxidase activity using submitochondrial particle as source of enzyme using [125I]-(S)-2-{[(tert-butyldiphenylsilyl)oxy]methyl}-1-{[3-(hexyloxy)propyl]sulfonyl}pyrrolidine by SDS-PAGE analysis
# Settings: Mitochondria
row,Compound,Activity
1,CCCCCCCCCCS(=O)(=O)N1CCC[C@H]1COCOC[C@@H]1CCCN1S(=O)(=O)CCCOc1ccc(I)cc1,Active
2,O=S(=O)(CCCOc1ccc(I)cc1)N1CCC[C@H]1COCOC[C@@H]1CCCN1S(=O)(=O)CCCOc1ccc(I)cc1,Active

# Molecular target: not listed separately
# Experiment: Inhibition of bovine heart succinate-cytochrome c oxidoreductase activity using submitochondrial particle as source of enzyme measured after 4 mins
# Type: mitochondria, Bos taurus, Mitochondria
# Settings: not given
row,IC50,Compound
1,> 20000 nM,CCCCCCCCCCS(=O)(=O)N1CCC[C@H]1COCOC[C@@H]1CCCN1S(=O)(=O)CCCOc1ccc(I)cc1
2,> 20000 nM,O=S(=O)(CCCOc1ccc(I)cc1)N1CCC[C@H]1COCOC[C@@H]1CCCN1S(=O)(=O)CCCOc1ccc(I)cc1
